pIC50: −log10 of the molar value.
What was measured:
[1] = biological target: Aurora kinase B (Homo sapiens) (UniProt Q96GD4); assay: Inhibition of human Aurora B at 500 nM by HotSpot assay relative to control
[2] = biological target: T1, NUAK family SNF1-like kinase 1 (Homo sapiens) (UniProt O60285); assay: Inhibition of human ARK5 at 500 nM by HotSpot assay relative to control
T1 sequence (whole entry): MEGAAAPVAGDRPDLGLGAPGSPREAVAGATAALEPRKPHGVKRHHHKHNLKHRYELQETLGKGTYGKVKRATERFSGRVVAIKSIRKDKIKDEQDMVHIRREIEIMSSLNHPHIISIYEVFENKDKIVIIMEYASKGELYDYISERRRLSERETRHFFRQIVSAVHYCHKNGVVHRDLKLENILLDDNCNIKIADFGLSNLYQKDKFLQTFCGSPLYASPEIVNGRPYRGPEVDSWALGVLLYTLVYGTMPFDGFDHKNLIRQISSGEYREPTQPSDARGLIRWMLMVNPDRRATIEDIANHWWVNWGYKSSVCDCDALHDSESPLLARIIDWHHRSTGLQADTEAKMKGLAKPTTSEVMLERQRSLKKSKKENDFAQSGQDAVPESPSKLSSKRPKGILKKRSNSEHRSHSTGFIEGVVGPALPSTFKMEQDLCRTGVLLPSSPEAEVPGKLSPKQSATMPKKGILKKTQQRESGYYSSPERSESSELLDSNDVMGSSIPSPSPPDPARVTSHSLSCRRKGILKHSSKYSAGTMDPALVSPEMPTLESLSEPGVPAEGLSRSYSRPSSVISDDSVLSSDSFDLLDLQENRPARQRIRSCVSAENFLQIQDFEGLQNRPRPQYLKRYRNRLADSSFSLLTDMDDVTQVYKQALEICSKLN

[3] = biological target: T2, Tyrosine-protein kinase receptor TYRO3 (Homo sapiens) (UniProt Q06418); assay: Inhibition of human SKY at 500 nM by HotSpot assay relative to control
T2 sequence (whole entry): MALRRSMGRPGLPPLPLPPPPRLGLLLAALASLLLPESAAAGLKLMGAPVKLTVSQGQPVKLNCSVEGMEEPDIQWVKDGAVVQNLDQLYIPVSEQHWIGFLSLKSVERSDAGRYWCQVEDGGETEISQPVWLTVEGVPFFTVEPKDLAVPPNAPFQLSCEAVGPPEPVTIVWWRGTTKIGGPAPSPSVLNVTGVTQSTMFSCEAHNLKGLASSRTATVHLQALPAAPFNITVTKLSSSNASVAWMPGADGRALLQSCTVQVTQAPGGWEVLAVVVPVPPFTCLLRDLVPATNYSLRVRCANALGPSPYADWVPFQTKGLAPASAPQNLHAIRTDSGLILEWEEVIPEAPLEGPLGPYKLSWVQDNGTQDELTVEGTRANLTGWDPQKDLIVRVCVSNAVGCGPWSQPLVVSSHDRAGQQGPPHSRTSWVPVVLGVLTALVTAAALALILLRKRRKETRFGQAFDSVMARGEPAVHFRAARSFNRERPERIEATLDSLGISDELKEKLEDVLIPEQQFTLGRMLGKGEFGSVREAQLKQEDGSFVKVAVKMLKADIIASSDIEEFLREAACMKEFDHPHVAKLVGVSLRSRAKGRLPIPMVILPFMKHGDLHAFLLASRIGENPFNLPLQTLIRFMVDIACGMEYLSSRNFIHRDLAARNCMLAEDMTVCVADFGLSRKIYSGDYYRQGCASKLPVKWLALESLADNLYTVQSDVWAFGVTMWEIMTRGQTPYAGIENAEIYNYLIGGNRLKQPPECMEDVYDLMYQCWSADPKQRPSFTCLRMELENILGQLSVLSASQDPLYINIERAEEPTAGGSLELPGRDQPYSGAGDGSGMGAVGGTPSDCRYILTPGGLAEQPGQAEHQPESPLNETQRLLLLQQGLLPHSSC

[4] = biological target: T3, Myotonin-protein kinase (Homo sapiens) (UniProt Q09013); assay: Inhibition of human DMPK at 500 nM by HotSpot assay relative to control
T3 sequence (whole entry): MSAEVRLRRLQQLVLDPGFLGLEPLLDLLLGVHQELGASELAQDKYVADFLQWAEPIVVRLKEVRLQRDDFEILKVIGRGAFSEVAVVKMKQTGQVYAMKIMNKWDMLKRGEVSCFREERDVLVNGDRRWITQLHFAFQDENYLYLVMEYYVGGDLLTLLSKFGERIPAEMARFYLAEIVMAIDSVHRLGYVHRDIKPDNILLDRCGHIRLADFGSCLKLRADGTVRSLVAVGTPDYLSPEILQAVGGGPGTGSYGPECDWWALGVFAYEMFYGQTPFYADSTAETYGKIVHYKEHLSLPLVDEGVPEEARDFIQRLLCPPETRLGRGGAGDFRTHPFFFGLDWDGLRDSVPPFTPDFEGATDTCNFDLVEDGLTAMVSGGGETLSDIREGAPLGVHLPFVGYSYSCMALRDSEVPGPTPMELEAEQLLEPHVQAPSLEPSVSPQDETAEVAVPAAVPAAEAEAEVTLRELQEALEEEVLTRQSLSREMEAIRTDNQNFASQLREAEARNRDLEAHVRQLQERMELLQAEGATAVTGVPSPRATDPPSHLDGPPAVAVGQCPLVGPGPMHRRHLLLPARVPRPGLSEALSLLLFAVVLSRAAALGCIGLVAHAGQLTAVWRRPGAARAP

[5] = biological target: Tyrosine-protein kinase Lck (Homo sapiens) (UniProt P06239); assay: Inhibition of human LCK at 500 nM by HotSpot assay relative to control
[6] = biological target: Dual specificity protein kinase CLK2 (Homo sapiens) (UniProt P49760); assay: Inhibition of human CLK2 at 500 nM by HotSpot assay relative to control
[7] = Inhibition of inactive form of human Insulin receptor (978 to 1283 residues) C981S mutant kinase domain expressed in baculovirus infected Sf9 cells incubated for 1 hr by [gamma-33P]ATP assay
[8] = biological target: SRSF protein kinase 2 (Homo sapiens) (UniProt P78362); assay: Inhibition of human SRPK2 at 500 nM by HotSpot assay relative to control
[9] = biological target: Tyrosine-protein kinase Lyn (Homo sapiens) (UniProt P07948); assay: Inhibition of human LYN at 500 nM by HotSpot assay relative to control
[10] = biological target: Glycogen synthase kinase-3 alpha (Homo sapiens) (UniProt P49840); assay: Inhibition of human GSK3a at 500 nM by HotSpot assay relative to control
[11] = biological target: Serine/threonine-protein kinase pim-3 (Homo sapiens) (UniProt Q86V86); assay: Inhibition of human PIM3 at 500 nM by HotSpot assay relative to control
[12] = biological target: Homeodomain-interacting protein kinase 1 (Homo sapiens) (UniProt Q86Z02); assay: Inhibition of human HIPK1 at 500 nM by HotSpot assay relative to control
Homeodomain-interacting protein kinase 1 (Homo sapiens), sequence (Q86Z02 whole entry, looked up): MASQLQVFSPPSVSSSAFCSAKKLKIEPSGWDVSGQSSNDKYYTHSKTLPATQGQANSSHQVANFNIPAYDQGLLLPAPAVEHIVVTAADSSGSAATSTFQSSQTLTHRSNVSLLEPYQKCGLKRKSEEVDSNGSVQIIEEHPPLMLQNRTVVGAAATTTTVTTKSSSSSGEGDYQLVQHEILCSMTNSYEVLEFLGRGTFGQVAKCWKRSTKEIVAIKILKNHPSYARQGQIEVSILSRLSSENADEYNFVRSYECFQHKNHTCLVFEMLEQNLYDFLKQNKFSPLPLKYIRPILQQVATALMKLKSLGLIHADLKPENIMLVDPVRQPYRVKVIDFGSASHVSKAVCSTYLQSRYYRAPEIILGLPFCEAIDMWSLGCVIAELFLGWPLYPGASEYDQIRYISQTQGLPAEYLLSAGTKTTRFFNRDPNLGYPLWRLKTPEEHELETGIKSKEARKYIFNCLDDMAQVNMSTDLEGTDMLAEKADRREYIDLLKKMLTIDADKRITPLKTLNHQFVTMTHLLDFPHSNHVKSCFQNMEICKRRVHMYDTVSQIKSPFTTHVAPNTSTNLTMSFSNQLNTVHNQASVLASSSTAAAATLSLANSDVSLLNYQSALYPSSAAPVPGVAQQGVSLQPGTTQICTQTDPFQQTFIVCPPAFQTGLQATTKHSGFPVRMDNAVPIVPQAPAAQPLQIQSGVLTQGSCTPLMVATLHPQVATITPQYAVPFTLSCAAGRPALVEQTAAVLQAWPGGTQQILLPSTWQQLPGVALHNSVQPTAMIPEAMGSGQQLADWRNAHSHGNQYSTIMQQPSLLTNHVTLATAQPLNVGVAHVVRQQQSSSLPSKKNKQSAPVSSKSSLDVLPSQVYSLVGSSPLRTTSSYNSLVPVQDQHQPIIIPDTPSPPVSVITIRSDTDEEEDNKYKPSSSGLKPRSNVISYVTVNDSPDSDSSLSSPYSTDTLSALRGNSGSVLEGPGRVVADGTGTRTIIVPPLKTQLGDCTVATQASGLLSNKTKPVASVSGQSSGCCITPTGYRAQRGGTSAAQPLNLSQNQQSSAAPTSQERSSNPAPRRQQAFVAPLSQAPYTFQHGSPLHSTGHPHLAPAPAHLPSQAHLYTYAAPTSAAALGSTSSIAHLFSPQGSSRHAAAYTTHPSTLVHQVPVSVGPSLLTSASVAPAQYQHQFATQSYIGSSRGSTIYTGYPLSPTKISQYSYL

SRSF protein kinase 2 (Homo sapiens), sequence (P78362 whole entry, looked up): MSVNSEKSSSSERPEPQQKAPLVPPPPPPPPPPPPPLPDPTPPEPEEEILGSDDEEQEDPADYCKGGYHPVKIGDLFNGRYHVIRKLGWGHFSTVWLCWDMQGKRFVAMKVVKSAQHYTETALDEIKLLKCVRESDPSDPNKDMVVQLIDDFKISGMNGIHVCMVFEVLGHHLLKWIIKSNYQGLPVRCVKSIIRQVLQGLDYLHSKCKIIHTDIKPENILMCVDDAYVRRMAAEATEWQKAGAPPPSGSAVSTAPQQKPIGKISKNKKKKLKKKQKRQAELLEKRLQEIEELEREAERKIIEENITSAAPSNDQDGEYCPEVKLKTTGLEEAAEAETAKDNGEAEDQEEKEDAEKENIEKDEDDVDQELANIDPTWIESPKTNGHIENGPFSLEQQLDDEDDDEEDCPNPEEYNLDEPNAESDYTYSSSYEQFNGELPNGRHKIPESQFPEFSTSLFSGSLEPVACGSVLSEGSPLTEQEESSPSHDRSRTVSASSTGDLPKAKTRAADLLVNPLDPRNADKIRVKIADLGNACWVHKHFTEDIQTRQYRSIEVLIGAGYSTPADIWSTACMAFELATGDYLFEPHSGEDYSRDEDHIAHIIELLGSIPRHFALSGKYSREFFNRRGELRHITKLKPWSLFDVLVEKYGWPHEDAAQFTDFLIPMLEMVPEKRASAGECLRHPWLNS
Tyrosine-protein kinase Lck (Homo sapiens), sequence (P06239 2-509 limits assumed): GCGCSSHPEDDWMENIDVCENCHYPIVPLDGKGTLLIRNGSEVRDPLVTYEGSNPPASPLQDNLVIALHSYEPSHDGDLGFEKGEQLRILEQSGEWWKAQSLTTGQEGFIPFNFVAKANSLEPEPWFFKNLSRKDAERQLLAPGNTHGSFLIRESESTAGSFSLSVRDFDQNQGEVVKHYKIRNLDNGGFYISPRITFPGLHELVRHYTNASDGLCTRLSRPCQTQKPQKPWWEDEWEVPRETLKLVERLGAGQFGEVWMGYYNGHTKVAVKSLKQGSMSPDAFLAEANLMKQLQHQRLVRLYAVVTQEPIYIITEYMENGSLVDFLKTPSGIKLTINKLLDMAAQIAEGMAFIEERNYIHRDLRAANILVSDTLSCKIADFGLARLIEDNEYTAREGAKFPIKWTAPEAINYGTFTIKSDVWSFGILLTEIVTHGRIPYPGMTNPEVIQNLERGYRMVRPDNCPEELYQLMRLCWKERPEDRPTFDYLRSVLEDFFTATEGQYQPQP
Dual specificity protein kinase CLK2 (Homo sapiens), sequence (P49760 whole entry, looked up, the tested form may be a part): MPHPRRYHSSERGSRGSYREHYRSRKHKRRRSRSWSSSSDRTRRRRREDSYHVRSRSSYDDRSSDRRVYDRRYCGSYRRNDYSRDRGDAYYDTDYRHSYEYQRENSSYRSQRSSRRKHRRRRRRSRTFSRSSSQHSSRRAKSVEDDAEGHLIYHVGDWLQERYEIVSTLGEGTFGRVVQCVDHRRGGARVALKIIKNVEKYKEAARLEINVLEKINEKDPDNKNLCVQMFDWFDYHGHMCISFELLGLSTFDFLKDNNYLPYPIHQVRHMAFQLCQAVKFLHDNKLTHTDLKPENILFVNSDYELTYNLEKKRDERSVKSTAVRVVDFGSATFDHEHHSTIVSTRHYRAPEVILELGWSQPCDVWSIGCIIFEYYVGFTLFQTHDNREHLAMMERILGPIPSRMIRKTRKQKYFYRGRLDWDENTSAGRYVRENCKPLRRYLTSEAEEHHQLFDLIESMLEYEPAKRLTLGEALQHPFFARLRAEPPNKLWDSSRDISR
Glycogen synthase kinase-3 alpha (Homo sapiens), sequence (P49840 2-483 limits assumed): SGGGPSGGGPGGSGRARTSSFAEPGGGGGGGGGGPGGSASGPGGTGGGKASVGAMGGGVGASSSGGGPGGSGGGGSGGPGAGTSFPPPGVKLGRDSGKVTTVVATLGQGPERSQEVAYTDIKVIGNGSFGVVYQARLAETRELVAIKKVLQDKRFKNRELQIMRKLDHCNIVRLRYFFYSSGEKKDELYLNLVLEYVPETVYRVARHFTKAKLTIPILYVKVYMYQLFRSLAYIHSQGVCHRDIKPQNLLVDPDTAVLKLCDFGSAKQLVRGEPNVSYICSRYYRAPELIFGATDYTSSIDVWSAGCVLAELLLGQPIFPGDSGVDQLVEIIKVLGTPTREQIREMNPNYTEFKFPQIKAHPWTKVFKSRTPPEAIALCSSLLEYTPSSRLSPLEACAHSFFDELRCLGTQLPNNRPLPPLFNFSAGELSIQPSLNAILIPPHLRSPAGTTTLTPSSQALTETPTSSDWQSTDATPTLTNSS
Tyrosine-protein kinase Lyn (Homo sapiens), sequence (P07948 2-512 limits assumed): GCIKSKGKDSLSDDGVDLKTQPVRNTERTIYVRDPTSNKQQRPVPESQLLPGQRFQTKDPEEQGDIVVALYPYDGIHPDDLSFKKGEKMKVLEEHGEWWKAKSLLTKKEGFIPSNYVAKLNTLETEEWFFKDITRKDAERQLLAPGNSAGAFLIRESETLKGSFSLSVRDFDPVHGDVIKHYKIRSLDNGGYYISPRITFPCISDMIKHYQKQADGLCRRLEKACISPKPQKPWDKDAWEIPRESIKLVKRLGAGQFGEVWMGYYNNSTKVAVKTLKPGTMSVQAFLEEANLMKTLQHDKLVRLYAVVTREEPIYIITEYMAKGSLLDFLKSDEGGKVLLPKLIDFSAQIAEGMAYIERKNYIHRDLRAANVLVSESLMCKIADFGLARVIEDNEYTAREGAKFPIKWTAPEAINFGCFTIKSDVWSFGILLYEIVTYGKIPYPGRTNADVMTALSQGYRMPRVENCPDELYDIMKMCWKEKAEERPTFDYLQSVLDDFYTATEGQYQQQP
Aurora kinase B (Homo sapiens), sequence (Q96GD4 whole entry): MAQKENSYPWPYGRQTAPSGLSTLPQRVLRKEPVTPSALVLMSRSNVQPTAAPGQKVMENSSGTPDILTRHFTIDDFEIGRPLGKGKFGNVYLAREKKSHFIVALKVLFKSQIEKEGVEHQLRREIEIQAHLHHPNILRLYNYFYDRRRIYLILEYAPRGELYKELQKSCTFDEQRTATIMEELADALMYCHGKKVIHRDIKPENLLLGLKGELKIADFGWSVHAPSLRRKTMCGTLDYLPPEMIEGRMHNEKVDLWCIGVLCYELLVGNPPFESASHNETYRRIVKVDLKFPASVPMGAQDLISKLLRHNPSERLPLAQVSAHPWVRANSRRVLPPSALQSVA

Row | Structure (SMILES) | inhibition [1] | inhibition [2] | inhibition [3] | inhibition [4] | inhibition [5] | inhibition [6] | pIC50 [7] | inhibition [8] | inhibition [9] | inhibition [10] | inhibition [11] | inhibition [12]
1 | Nc1n[nH]c2nnc(-c3c(-c4ccccc4)nn4ccccc34)cc12 | 3.24% | 7.47% | 2.41% | -2.61% | 4.93% | -1.46% | 5.27 | 26.2% | 5.07% | 18.9% | -0.43% | -4.88%
2 | Oc1n[nH]c2nnc(-c3c(-c4ccccc4)nn4ccccc34)cc12 | 2.45% | 1.9% | 10.1% | -3.39% | -0.49% | 2.49% | 5.74 | 0.47% | 2.29% | -1.18% | -0.71% | -1.71%

Reference: ChEMBL document CHEMBL5653615 (J Biol Chem, 2013)
